# Laboratory results published in PubChem BioAssay AID1963449 (Molecular Pharmacology Branch, DTP, NCI, 2024).
# pIC50: −log10 of the molar value. Values joined by “and” are separate entries in the source; they are usually repeats but may differ in a detail not shown here. Equal entries are not always repeated.
# Tested on: 596521-263-R-J1-PDC complex spheroid growth
# Experiment: Anticancer human tumor 596521-263-R-J1-PDC patient-derived soft tissue sarcoma cell line growth inhibition [Asc]
# Conditions: for viability, T/C: stronger effect = lower value
# Summary of the method: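 Concentration series start at each agent's clinical Cmax, or at 10 microM when none is established, and drop in half-log steps; agents are applied alone or together to complex spheroids built with HUVEC and hMSC.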
# [1] = curve of first compound, second compound 0.0316 µM
# [2] = curve of first compound, second compound 0.1 µM
# [3] = curve of first compound, second compound 0.316 µM
# [4] = curve of first compound, second compound 1 µM
# [5] = second compound 0.0316 µM, first compound 0.0316 µM
# [6] = second compound 0.0316 µM, first compound 0.1 µM
# [7] = second compound 0.0316 µM, first compound 0.316 µM
# [8] = second compound 0.0316 µM, first compound 1 µM
# [9] = second compound 0.1 µM, first compound 0.0316 µM
# [10] = second compound 0.1 µM, first compound 0.1 µM
# [11] = second compound 0.1 µM, first compound 0.316 µM
# [12] = second compound 0.1 µM, first compound 1 µM
# [13] = second compound 0.316 µM, first compound 0.0316 µM
# [14] = second compound 0.316 µM, first compound 0.1 µM
# [15] = second compound 0.316 µM, first compound 0.316 µM
# [16] = second compound 0.316 µM, first compound 1 µM
# [17] = second compound 1 µM, first compound 0.0316 µM
# [18] = second compound 1 µM, first compound 0.1 µM
# [19] = second compound 1 µM, first compound 0.316 µM
# [20] = second compound 1 µM, first compound 1 µM
# 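Further: spheroids exposed to compounds for 7 days.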
structure (smiles),measurement,setting,value
C=C(F)C(=O)N1CCN(c2nc(OCC3CCCN3C)nc3c2CCN(c2cccc4cccc(Cl)c24)C3)CC1CC#N (stereo not drawn) + Cc1c(S(C)(=O)=O)c(-c2cc(F)cc(N3CCN(c4ccc(NS(=O)(=O)c5ccc(NC(CCN6CCC(C(=O)OCCCP(=O)(O)O)CC6)CSc6ccccc6)c(S(=O)(=O)C(F)(F)F)c5)cc4)CC3)c2)c(-c2ccc(Cl)cc2)n1C(C)C,pIC50,[1],5.30
same,pIC50,[2],5.34
same,pIC50,[3],5.37
same,pIC50,[4],5.56
same,pIC50,"curve of first compound, second compound 3.16 µM",6.18
same,pIC50,"curve of first compound, second compound 10 µM",6.49
same,"viability, T/C",[5],110%
same,"viability, T/C",[6],98.3%
same,"viability, T/C",[7],87.6%
same,"viability, T/C",[8],101%
same,"viability, T/C","second compound 0.0316 µM, first compound 3.16 µM",81.9%
same,"viability, T/C","second compound 0.0316 µM, first compound 10 µM",0.22%
same,"viability, T/C",[9],98.4%
same,"viability, T/C",[10],97.9%
same,"viability, T/C",[11],93.9%
same,"viability, T/C",[12],91.1%
same,"viability, T/C","second compound 0.1 µM, first compound 3.16 µM",72.8%
same,"viability, T/C","second compound 0.1 µM, first compound 10 µM",0.18%
same,"viability, T/C",[13],104%
same,"viability, T/C",[14],98%
same,"viability, T/C",[15],92.4%
same,"viability, T/C",[16],89.6%
same,"viability, T/C","second compound 0.316 µM, first compound 3.16 µM",68.2%
same,"viability, T/C","second compound 0.316 µM, first compound 10 µM",0.17%
same,"viability, T/C",[17],84.3%
same,"viability, T/C",[18],87%
same,"viability, T/C",[19],76.7%
same,"viability, T/C",[20],80%
same,"viability, T/C","second compound 1 µM, first compound 3.16 µM",46%
same,"viability, T/C","second compound 1 µM, first compound 10 µM",1.18%
same,"viability, T/C","second compound 3.16 µM, first compound 0.0316 µM",79.5%
same,"viability, T/C","second compound 3.16 µM, first compound 0.1 µM",67.4%
same,"viability, T/C","second compound 3.16 µM, first compound 0.316 µM",52.4%
same,"viability, T/C","second compound 3.16 µM, first compound 1 µM",50.5%
same,"viability, T/C","second compound 3.16 µM, first compound 3.16 µM",26.9%
same,"viability, T/C","second compound 3.16 µM, first compound 10 µM",0.2%
same,"viability, T/C","second compound 10 µM, first compound 0.0316 µM",58.4%
same,"viability, T/C","second compound 10 µM, first compound 0.1 µM",50.1%
same,"viability, T/C","second compound 10 µM, first compound 0.316 µM",48.3%
same,"viability, T/C","second compound 10 µM, first compound 1 µM",44.2%
same,"viability, T/C","second compound 10 µM, first compound 3.16 µM",22%
same,"viability, T/C","second compound 10 µM, first compound 10 µM",1.02%
Cn1ncnc1[C@H]1c2n[nH]c(=O)c3cc(F)cc(c23)N[C@@H]1c1ccc(F)cc1,"viability, T/C",compound 0.000316 µM,95.5% and 111% and 105%
same,"viability, T/C",compound 0.001 µM,101% and 97% and 98.5%
same,"viability, T/C",compound 0.00316 µM,97.5% and 93.9% and 87.1%
same,"viability, T/C",compound 0.01 µM,87.1% and 98% and 103%
same,"viability, T/C",compound 0.0316 µM,105% and 96.6% and 94.3%
same,"viability, T/C",compound 0.1 µM,79.6% and 84.5% and 82.6%
same,pIC50,curve of compound,< 7.00
NC1CCC(NC2CC2c2ccccc2)CC1 (stereo not drawn),"viability, T/C",compound 0.000316 µM,92.5% and 90.7%
same,"viability, T/C",compound 0.001 µM,87% and 79.9%
same,"viability, T/C",compound 0.00316 µM,90% and 91.5%
same,"viability, T/C",compound 0.01 µM,95.4% and 94.3%
same,"viability, T/C",compound 0.0316 µM,99.2% and 85.7%
same,"viability, T/C",compound 0.1 µM,88.1% and 89.4%
same,pIC50,curve of compound,< 7.00
O=C(c1ccc(F)c(F)c1Nc1ccc(I)cc1F)N1CC(O)([C@@H]2CCCCN2)C1 + CNC(C)C(=O)NC1CN(S(=O)(=O)c2cccc(S(=O)(=O)N3CCC4CCC(C(=O)NC(c5ccccc5)c5ccccc5)N4C(=O)C(NC(=O)C(C)NC)C3)c2)CCC2CCC(C(=O)NC(c3ccccc3)c3ccccc3)N2C1=O,pIC50,"curve of first compound, second compound 0.00316 µM",6.75
same,pIC50,"curve of first compound, second compound 0.01 µM",6.61
same,pIC50,[1],6.68
same,pIC50,[2],6.73
same,pIC50,[3],6.73
same,pIC50,[4],6.83
same,"viability, T/C","second compound 0.00316 µM, first compound 0.00316 µM",94%
same,"viability, T/C","second compound 0.00316 µM, first compound 0.01 µM",89.4%
same,"viability, T/C","second compound 0.00316 µM, first compound 0.0316 µM",90.5%
same,"viability, T/C","second compound 0.00316 µM, first compound 0.1 µM",63.4%
same,"viability, T/C","second compound 0.00316 µM, first compound 0.316 µM",37.2%
same,"viability, T/C","second compound 0.00316 µM, first compound 1 µM",27.1%
same,"viability, T/C","second compound 0.01 µM, first compound 0.00316 µM",88.4%
same,"viability, T/C","second compound 0.01 µM, first compound 0.01 µM",75.8%
same,"viability, T/C","second compound 0.01 µM, first compound 0.0316 µM",93.3%
same,"viability, T/C","second compound 0.01 µM, first compound 0.1 µM",69.6%
same,"viability, T/C","second compound 0.01 µM, first compound 0.316 µM",45.2%
same,"viability, T/C","second compound 0.01 µM, first compound 1 µM",27.8%
same,"viability, T/C","second compound 0.0316 µM, first compound 0.00316 µM",96.6%
same,"viability, T/C","second compound 0.0316 µM, first compound 0.01 µM",87%
same,"viability, T/C",[5],84.9%
same,"viability, T/C",[6],61%
same,"viability, T/C",[7],43.9%
same,"viability, T/C",[8],27.3%
same,"viability, T/C","second compound 0.1 µM, first compound 0.00316 µM",76.5%
same,"viability, T/C","second compound 0.1 µM, first compound 0.01 µM",73.3%
same,"viability, T/C",[9],73%
same,"viability, T/C",[10],65%
same,"viability, T/C",[11],37.5%
same,"viability, T/C",[12],22.8%
same,"viability, T/C","second compound 0.316 µM, first compound 0.00316 µM",78.9%
same,"viability, T/C","second compound 0.316 µM, first compound 0.01 µM",91.6%
same,"viability, T/C",[13],77.4%
same,"viability, T/C",[14],65.9%
same,"viability, T/C",[15],36.8%
same,"viability, T/C",[16],23.8%
same,"viability, T/C","second compound 1 µM, first compound 0.00316 µM",65.9%
same,"viability, T/C","second compound 1 µM, first compound 0.01 µM",68.8%
same,"viability, T/C",[17],74.2%
same,"viability, T/C",[18],53.2%
same,"viability, T/C",[19],37.9%
same,"viability, T/C",[20],18.3%
